The text below walks through data of patent publication US6608083B1, “Quinoline derivatives(2)” (SmithKline Beecham Farmaceutici S.p.A, priority 1994, dated 2003).

One data set concerns the target T1, NK3 receptor (Cavia porcellus, UniProt P30098).
T1 sequence (P30098 1-440): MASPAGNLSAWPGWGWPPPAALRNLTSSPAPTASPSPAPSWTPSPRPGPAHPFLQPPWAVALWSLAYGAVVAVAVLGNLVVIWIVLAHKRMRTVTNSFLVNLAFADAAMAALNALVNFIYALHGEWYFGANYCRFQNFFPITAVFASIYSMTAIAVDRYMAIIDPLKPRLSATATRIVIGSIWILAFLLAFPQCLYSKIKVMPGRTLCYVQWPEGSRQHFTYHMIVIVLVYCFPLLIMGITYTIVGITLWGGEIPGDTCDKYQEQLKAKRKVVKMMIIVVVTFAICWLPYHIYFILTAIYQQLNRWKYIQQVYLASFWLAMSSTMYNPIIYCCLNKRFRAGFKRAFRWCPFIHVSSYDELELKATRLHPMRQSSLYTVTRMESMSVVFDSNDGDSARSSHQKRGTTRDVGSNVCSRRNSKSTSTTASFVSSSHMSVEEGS
Briefly: Binding: displacement of [3H]-Senktide / [125I]-[Me-Phe7]-NKB, guinea-pig cortex membranes.

SMILES strings stand for the structures.

Experimental for NK3 receptor: The activity of the compounds of the present invention, as NK3 ligands, is determined by their ability to inhibit the binding of the radiolabelled NK3 ligands, [^125I]-[Me-Phe^7]-NKB or [^3H]-Senktide, to guinea-pig and human NK3 receptors (Renzetti et al, 1991, Neuropeptide, 18, 104-114; Buell et al, 1992, FEBS, 299(1), 90-95; Chung et al, 1994, Biochem. Biophys. Res. Commun., 198(3), 967-972). […] Binding assays provide for each compound tested a mean IC50 value of 2-5 separate experiments performed in duplicate or triplicate. […] The NK3-antagonist activity of the compounds of the present invention is determined by their ability to inhibit senktide-induced contraction of the guinea-pig ileum (Maggi et al, 1990, Br. J. PharmacoL, 101, 996-1000) and rabbit isolated iris sphincter muscle (Hall et al., 1991, Eur. J. PharmacoL, 199, 9-14) and human NK3 receptors-mediated Ca^++ mobilization (Mochizuki et al, 1994, J. Bio. Chem., 269, 9651-9658). Guinea-pig and rabbit in-vitro functional assays provide for each compound tested a mean KB value of 3-8 separate experiments, where KB is the concentration of the individual compound required to produce a 2-fold rightward shift in the concentration-response curve of senktide. Human receptor functional assay allows the determination of the concentration of the individual compound required to reduce by 50% (IC50 values) the Ca^++ mobilization induced by the agonist NKB.

As usually defined, the Ki is the dissociation constant of the complex between target and ligand, obtained from inhibition or displacement. The low end stands for tighter binding, the high end for weaker binding. One may read the melting point as the temperature of the solid-liquid transition. On to `CCC(NC(=O)c1c(OC)c(-c2ccccc2)nc2ccccc12)c1ccccc1` (stereo not shown) [Example 47], for which the melting point lay within 132 to 134 °C. The same compound had a Ki on NK3 receptor of 8.8 nM.

Compound `CCc1c(-c2ccccc2)nc2ccccc2c1C(=O)NC(CC)c1ccccc1` (stereo not shown) [Example 48] came in with a melting point of 118 to 120 °C. Besides, the affinity on NK3 receptor, expressed as Ki, was 12 nM.
